Assay results reported in paper PMC7615343, “Fluorination Influences the Bioisostery of Myo-Inositol Pyrophosphate Analogs” (Chemistry (Weinheim an der Bergstrasse, Germany), 2023).

Molecular target: T1, PPIP5K2^1-366 (human PPIP5K2 kinase domain) (Homo sapiens, UniProt O43314)
T1 construct: one comprised residues 1–366; made in house
T1 sequence (O43314 1-366): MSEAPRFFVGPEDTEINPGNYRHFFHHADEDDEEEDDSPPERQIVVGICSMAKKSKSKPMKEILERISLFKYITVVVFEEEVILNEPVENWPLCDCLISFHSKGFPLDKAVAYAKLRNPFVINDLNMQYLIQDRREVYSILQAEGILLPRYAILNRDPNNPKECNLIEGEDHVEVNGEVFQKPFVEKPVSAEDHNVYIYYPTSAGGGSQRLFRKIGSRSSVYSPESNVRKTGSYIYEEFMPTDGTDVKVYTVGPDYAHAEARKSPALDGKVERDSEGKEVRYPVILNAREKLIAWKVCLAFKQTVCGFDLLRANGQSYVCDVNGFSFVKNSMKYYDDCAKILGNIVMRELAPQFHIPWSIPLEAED
Assay: PPIP5K2KD reverse kinase assay (ATP formation from ADP and 1,5(PP)2-IP4)
Format: biochemical
Details: 25 °C, 30 min, 0.1 mM ADP, 100 nM [1,5]PP-IP4, ATP production measured; this work; read-out: IC50, inhibition of the reverse kinase activity of PPIP5K2^1-366
Protocol: An alternative method to study the interaction of PP-IP5 analogs with PPIP5K2^KD is to derive IC50 values for inhibition of a “reverse-kinase” assay that records ATP formation when the enzyme is incubated with ADP and 1,5(PP)2-IP4.[29, 31] This approach avoids the need to use radiolabeled material and HPLC analysis. Moreover, the assay of ATP production is inherently more sensitive compared to measuring ATP consumption. […] In addition to the catalytic pocket, the PPIP5K2 kinase reaction cycle also utilizes a surface-mounted substrate capture site; the latter was initially identified through its binding of 5PA-IP5.[31] […] In this case, the higher affinity of the capture site for less polar molecules may explain why 5PA-IP5 is the only analog so far detected in this site.
For the reverse kinase assay, PPIP5K2^1-366 (2.5 μg mL^-1) was incubated at 25 °C for 30 min with 20 μL buffer containing 20 mM Tris-HCl, pH 7.5, 10 mM MgCl2, 0.1 mM ADP, 100 nM [1,5]PP-IP4 and various concentrations of either 5PCP-IP5 or 5PCF2P-IP5. The generated ATP was measured using a Molecular Probes ATP Determination kit (Thermo Fisher Scientific catalog number A22066). The IC50 value was calculated using GraphPad Prism. […]
Diffraction data were collected using APS beamlines 22 -ID. […] The structure was determined using rigid body and direct Fourier synthesis, and refined with t he equivalent and expanded test sets. […]

Row | SMILES | IC50 [nM]
1 | O=P(O)(O)O[C@H]1[C@@H](OP(=O)(O)O)[C@H](OP(=O)(O)O)[C@@H](OP(=O)(O)C(F)(F)P(=O)(O)O)[C@H](OP(=O)(O)O)[C@H]1OP(=O)(O)O [5PCF2P-IP5] | 583
2 | O=P(O)(O)CP(=O)(O)O[C@H]1[C@H](OP(=O)(O)O)[C@@H](OP(=O)(O)O)[C@@H](OP(=O)(O)O)[C@@H](OP(=O)(O)O)[C@@H]1OP(=O)(O)O [5PCP-IP5] | 223
